The source made the active and inactive calls.
Assays:
[1] = target: T1, Dual specificity protein phosphatase 6 (Rattus norvegicus, UniProt Q64346); assay type: functional
T1 sequence (Q64346 whole entry): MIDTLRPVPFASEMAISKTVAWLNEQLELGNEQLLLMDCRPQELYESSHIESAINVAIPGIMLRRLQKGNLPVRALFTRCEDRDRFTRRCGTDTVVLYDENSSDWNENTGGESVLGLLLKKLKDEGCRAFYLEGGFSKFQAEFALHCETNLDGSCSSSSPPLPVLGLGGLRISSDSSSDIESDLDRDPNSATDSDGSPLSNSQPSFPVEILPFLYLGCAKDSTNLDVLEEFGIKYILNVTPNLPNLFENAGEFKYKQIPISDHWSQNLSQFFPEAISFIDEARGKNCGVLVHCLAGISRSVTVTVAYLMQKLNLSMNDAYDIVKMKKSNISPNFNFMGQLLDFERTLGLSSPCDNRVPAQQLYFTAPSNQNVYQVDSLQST

[2] = target: Bcl-2-like protein 1 (Homo sapiens, UniProt Q07817); assay: blockers of BCLXL peptide binding – biochemical, fluorescence polarization, 1536-well, selectivity assay for MCL1 inhibitor project, dose response (AID 2218)
Sequence of Bcl-2-like protein 1 (Q07817 whole entry): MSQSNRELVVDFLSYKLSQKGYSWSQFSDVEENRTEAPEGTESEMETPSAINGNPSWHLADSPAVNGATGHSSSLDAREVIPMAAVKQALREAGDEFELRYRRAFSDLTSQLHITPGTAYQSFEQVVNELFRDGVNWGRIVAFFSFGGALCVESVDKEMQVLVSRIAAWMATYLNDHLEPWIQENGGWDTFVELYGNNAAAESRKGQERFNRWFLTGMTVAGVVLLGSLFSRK

[3] = target: T2, Induced myeloid leukemia cell differentiation protein Mcl-1 (Homo sapiens, UniProt Q07820); assay: blockers of MCL1 binding to BIM peptide – biochemical, fluorescence polarization, BIM-BH3 peptide, 1536-well, dose response (AID 2217)
T2 sequence (Q07820 whole entry): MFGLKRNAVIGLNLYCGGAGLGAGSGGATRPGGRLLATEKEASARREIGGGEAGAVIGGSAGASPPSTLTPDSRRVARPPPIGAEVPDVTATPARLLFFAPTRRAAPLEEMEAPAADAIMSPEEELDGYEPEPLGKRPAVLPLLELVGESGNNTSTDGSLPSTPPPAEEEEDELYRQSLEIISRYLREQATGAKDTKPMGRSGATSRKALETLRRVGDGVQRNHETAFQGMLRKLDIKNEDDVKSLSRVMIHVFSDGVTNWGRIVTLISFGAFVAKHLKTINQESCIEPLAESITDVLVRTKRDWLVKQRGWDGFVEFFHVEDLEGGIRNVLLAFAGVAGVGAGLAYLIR

[4] = target: T1, Dual specificity protein phosphatase 6
[5] = target: T3, Tyrosine-protein phosphatase non-receptor type 7 (Homo sapiens, UniProt P35236); assay type: functional
T3 sequence (P35236 whole entry): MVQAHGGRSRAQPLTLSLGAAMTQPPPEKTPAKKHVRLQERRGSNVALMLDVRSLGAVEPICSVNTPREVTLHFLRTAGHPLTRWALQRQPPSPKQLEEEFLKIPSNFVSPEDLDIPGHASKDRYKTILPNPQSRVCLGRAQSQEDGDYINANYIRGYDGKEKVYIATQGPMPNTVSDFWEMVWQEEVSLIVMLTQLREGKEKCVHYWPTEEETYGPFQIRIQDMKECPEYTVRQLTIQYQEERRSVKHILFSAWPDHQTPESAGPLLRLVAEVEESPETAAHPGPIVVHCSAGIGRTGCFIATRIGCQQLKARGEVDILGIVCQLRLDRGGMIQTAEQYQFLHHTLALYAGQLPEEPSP

[6] = target: T2, Induced myeloid leukemia cell differentiation protein Mcl-1; assay type: functional
[7] = target: Glyceraldehyde-3-phosphate dehydrogenase (Homo sapiens, UniProt P04406)
Sequence of Glyceraldehyde-3-phosphate dehydrogenase (P04406 whole entry): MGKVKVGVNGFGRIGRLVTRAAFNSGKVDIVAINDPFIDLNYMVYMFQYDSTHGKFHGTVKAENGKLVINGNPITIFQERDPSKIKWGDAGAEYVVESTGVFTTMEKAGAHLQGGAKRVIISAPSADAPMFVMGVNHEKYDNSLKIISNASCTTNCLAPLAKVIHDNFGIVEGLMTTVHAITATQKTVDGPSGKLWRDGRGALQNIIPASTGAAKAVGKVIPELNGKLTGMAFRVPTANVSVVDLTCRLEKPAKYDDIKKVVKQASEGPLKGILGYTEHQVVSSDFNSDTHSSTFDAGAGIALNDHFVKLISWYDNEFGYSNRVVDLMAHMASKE

[8] = target: Protein-tyrosine kinase 2-beta (Homo sapiens, UniProt Q14289);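 note: potency of inhibitors of PYK2 kinase phosphorylation of poly-GT substrate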
Sequence of Protein-tyrosine kinase 2-beta (Q14289 whole entry): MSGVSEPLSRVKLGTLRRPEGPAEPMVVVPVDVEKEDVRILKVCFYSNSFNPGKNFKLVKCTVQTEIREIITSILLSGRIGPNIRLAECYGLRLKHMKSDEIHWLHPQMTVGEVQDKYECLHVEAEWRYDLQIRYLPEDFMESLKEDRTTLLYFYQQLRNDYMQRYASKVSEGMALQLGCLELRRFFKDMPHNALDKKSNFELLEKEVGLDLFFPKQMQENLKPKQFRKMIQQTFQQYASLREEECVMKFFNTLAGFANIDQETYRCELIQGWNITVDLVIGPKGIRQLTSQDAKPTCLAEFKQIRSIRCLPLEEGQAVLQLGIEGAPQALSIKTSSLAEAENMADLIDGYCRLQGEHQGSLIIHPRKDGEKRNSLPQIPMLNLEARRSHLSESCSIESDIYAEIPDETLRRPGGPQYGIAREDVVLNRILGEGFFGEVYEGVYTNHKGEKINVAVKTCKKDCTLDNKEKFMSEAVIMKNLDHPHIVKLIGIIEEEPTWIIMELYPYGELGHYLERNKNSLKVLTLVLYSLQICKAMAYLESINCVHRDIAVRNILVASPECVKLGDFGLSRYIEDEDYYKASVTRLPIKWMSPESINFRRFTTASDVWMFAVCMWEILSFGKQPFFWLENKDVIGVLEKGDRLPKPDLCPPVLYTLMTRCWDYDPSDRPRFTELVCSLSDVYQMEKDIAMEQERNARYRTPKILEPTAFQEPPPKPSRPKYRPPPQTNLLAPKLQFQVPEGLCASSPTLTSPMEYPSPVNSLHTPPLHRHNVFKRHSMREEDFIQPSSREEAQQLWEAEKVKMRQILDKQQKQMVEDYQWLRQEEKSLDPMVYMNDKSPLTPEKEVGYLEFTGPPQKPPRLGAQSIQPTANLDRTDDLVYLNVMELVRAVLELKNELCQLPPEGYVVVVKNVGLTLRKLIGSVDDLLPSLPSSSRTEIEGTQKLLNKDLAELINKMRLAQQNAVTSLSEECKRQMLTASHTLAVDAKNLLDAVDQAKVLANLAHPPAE

[9] = target: T4, NADPH oxidase 1 (Homo sapiens, UniProt Q9Y5S8); assay: Luminescence-based cell-based dose response assay to identify inhibitors of NADPH oxidase 1 (NOX1).; assay type: functional
T4 sequence (Q9Y5S8 whole entry): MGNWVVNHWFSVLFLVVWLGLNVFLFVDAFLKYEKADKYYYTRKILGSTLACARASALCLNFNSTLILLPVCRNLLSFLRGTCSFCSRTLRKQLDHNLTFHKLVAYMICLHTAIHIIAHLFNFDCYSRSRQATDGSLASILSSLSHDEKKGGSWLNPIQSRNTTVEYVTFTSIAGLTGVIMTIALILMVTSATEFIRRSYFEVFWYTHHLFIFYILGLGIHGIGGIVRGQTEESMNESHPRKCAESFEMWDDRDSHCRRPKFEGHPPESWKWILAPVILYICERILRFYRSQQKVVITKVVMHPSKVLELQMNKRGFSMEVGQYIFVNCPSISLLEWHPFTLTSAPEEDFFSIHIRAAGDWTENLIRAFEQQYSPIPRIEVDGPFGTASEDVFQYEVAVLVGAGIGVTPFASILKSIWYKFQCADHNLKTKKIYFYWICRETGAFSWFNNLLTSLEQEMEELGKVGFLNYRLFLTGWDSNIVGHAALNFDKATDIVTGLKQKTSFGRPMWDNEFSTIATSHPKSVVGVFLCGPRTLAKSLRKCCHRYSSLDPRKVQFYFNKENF

[10] = M. tuberculosis H37Rv growth inhibitors, H37Rv strain (AID 1626); assay type: functional
[11] = Luminescence Cell-Based Dose Response HTS to Identify Activators of Luciferase Translation or Activity in H4 […] Cells. [Related pubchem assays: 1829 (Project Summary), 1814 (Primary HTS)]; assay type: functional
[12] = Luminescence Cell-Based Dose Response to Identify Activators of 5'UTR Stem-Loop Driven Prion Protein mRNA Translation in H4-C Neuroglioblastoma Cells. [Related pubchem assays: 1829 (Project Summary), 1814 (Primary HTS)]; assay type: functional
[13] = Luminescence Cell-Based Dose Confirmation to Identify Activators of 5'UTR Stem-Loop Driven Alpha-Synuclein mRNA Translation in H4 Neuroglioblastoma Cells. [Related pubchem assays: 1829 (Project Summary), 1814 (Primary HTS)]; assay type: functional
[14] = system: H4; assay: Luminescence Cell-Based Dose Response HTS to Identify Activators of 5'UTR Stem-Loop Driven Prion Protein mRNA Translation in H4 Neuroglioblastoma Cells. [Related pubchem assays: 1829 (Project Summary), 1814 (Primary HTS)]; assay type: functional; settings: Homo sapiens
[15] = Luminescence Cell-Based Dose Response to Identify Activators of Luciferase Translation or Activity in H4-C Neuroglioblastoma Cells. [Related pubchem assays: 1829 (Project Summary), 1814 (Primary HTS)]; assay type: functional

SMILES: Cc1cc(NC(=O)Cc2cccs2)no1
- IC50 [1]: 13.1 µM (active)
- IC50 [2]: 53.2 µM (not active)
- IC50 [3]: 4.05 µM (active)
- IC50 [4]: 15.3 µM (active)
- IC50 [5]: 3.93 µM (active)
- IC50 [6]: 1.58 µM (active)
- IC50 [7]: 92.2 µM (active)
- IC50 [8]: 6.64 µM (active)

SMILES: CCOc1ccc(NC(=O)Nc2ccc(N(C)C(C)=O)cc2)cc1
- IC50 [9]: > 20 µM (not active)

SMILES: Nc1ccc(N=Nc2ccccc2)cc1
- IC50 [10]: > 100 µM (active)

SMILES: Cc1cc(C(=O)ON=C(N)c2ccc(C(C)(C)C)cc2)no1
- EC50 [11]: < 0.1 µM (inconclusive)
- EC50 [12]: 1.78 µM (active)
- EC50 [13]: 0.737 µM (active)
- EC50 [14]: 110 µM (active)
- EC50 [15]: 0.442 µM (active)

— ChEMBL document CHEMBL1201862, “PubChem BioAssay data set” (2004)
